From ChEMBL document CHEMBL1212936, “Discovery of 2-[1-(4-chlorophenyl)cyclopropyl]-3-hydroxy-8-(trifluoromethyl)quinoline-4-carboxylic acid (PSI-421), a P-selectin inhibitor with improved pharmacokinetic properties and oral efficacy in models of vascular injury” (J Med Chem, 2010)
Converted amounts (≈) assume the structure as drawn.

Columns and labels:
CYP2C9 = CYP2C9 (Homo sapiens, UniProt P11712); test: Inhibition of CYP2C9 at 3 uM; format: ADME
[1] = biological target: T1, P-selectin glycoprotein ligand 1 (Homo sapiens) (UniProt Q14242); test: Inhibition of recombinant PSGL-1 at 250 uM by surface plasmon resonance assay
T1 sequence (whole entry): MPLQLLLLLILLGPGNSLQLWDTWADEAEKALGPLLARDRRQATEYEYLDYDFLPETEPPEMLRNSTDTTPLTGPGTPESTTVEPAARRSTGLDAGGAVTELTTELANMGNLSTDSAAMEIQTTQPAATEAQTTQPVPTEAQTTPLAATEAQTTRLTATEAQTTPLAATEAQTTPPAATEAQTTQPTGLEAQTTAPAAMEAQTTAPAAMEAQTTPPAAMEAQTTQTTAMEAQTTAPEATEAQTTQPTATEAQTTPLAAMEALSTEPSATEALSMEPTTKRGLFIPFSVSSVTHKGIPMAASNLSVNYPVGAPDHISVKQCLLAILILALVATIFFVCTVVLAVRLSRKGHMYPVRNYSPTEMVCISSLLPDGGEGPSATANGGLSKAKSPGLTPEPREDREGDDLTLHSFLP

[2] = biological target: T2, P-selectin glycoprotein ligand 1 (Homo sapiens, UniProt Q14242); test: Inhibition of recombinant PSGL-1 by surface plasmon resonance assay
T2 sequence (Q14242 whole entry): T1 sequence (whole entry)

[3] = Clearance in Sprague-Dawley rat at 3 mg/kg, iv and 10 mg/kg, po; format: ADME, organism-based; conditions: in vivo
[4] = Oral bioavailability in Sprague-Dawley rat at 10 mg/kg; format: ADME, organism-based; conditions: in vivo
Rattus norvegicus = test: Dose normalized AUC in Sprague-Dawley rat measured per mg of plasma at 3 mg/kg, iv and 10 mg/kg, po; format: ADME, organism-based; conditions: in vivo
[5] = Aqueous solubility of the compound at pH 6.6; format: physicochemical; conditions: aqueous solution
Mus musculus [6] = test: Reduction of leukocytes rolling flux in acute intravital microscopy model of C57B6 mouse cremasteric postcapillary venules at 50 mg/kg, po after 35 mins relative to control; format: functional; set-up: scale not given: the % may be the effect or the level left
[7] = Half life in human liver microsomes; format: ADME, Microsome
[8] = Half life in Sprague-Dawley rat liver microsomes; format: ADME, Microsome
[9] = Oral bioavailability in cynomolgus monkey at 5 mg/kg; format: ADME, organism-based, Macaca fascicularis; conditions: in vivo
Cynomolgus monkey = test: Dose normalized AUC in cynomolgus monkey measured per mg of plasma at 5 mg/kg, iv and po; format: ADME, organism-based, Macaca fascicularis; set-up: dose 5 mg/kg, route oral; conditions: in vivo
[10] = Half life in Beagle dog liver microsomes; format: ADME, Canis lupus familiaris, Microsome
Mus musculus [11] = test: Dose normalized AUC in C57B6 mouse measured per mg of plasma at 2 mg/kg, iv and 10 mg/kg, po; format: ADME, organism-based; conditions: in vivo
[12] = Clearance in Beagle dog at 2 mg/kg, iv and 10 mg/kg, po; format: ADME, organism-based, Canis lupus familiaris; conditions: in vivo
[13] = Aqueous solubility of the compound at pH 4.5; format: physicochemical; conditions: aqueous solution
[14] = Half life in C57B6 mouse liver microsomes; format: ADME, Microsome
[15] = Oral bioavailability in Beagle dog at 10 mg/kg; format: ADME, organism-based, Canis lupus familiaris; conditions: in vivo
[16] = Clearance in C57B6 mouse at 2 mg/kg, iv and 10 mg/kg, po; format: ADME, organism-based; conditions: in vivo
[17] = Half life in cynomolgus monkey liver microsomes; format: ADME, Macaca fascicularis, Microsome
Canis familiaris = test: Dose normalized AUC in Beagle dog measured per mg of plasma at 2 mg/kg, iv and 10 mg/kg, po; format: ADME, organism-based, Canis lupus familiaris; conditions: in vivo
[18] = Aqueous solubility of the compound at pH 1; format: physicochemical; conditions: aqueous solution
[19] = Oral bioavailability in C57B6 mouse at 10 mg/kg; format: ADME, organism-based; conditions: in vivo
[20] = Aqueous solubility of the compound at pH 7.4; format: physicochemical; conditions: buffer
[21] = Aqueous solubility of the compound at pH 9; format: physicochemical; conditions: buffer

CYP2C9, sequence (P11712 whole entry): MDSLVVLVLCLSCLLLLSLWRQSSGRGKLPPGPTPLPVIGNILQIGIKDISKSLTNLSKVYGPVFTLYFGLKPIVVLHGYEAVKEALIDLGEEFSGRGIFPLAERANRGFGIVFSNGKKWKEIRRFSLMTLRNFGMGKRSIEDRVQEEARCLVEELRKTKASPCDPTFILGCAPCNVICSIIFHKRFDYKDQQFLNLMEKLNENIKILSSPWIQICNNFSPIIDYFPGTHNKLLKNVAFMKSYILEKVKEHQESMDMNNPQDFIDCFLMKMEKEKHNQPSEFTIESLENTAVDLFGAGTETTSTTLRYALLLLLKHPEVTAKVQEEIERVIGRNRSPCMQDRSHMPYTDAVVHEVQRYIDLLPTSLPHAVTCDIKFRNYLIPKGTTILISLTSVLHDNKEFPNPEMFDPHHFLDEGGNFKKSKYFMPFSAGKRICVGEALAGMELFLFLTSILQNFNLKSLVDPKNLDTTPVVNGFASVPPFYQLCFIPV

inhibition [1] | clearance [3] | bioavailability [4] | AUC (Rattus norvegicus) | solubility [5] | SMILES | also measured
20% |  |  |  |  | Cc1cc(C)c2nc(C3(c4ccccc4)CC3)c(O)c(C(=O)O)c2c1 | inhibition at 3 µM (CYP2C9): 54%
 | 0.234 L/h/kg | 45% | 1.925 µg·h/mL |  | O=C(O)c1c(O)c(C2(c3ccccc3)CC2)nc2c3c(ccc12)CCCC3 | IC50 [2]: 250 µM
0% |  |  |  |  | O=C(O)c1c(O)c(C2(c3ccc(Cl)cc3)CCC2)nc2c(C(F)(F)F)cccc12 | 
< 10% |  |  |  |  | CC(C)C(c1ccc(Cl)cc1)c1nc2c(C(F)(F)F)cccc2c(C(=O)O)c1O (stereo not drawn) | 
 | 0.54 L/h/kg | 100% | 2.663 µg·h/mL | 0.37 mg/mL (≈ 1070 µM) | CC(C)c1cccc2c(C(=O)O)c(O)c(C3(c4ccccc4)CC3)nc12 | 
24% |  |  |  |  | Cc1ccc(C2(c3nc4c(C)c(C)ccc4c(C(=O)O)c3O)CC2)cc1 | inhibition at 3 µM (CYP2C9): 47%
< 10% |  |  |  |  | O=C(O)c1c(O)c(C2(c3ccc(Cl)cc3)CC2)nc2c(C(F)(F)F)cc(Cl)cc12 | inhibition at 3 µM (CYP2C9): 72%
49% |  |  |  | 1.55 mg/mL (≈ 4130 µM) | CC(Cc1ccccc1)c1nc2c(C(F)(F)F)cccc2c(C(=O)O)c1O (stereo not drawn) | 
58% |  |  |  | 0.03 mg/mL (≈ 77 µM) | CC(C)C(c1ccccc1)c1nc2c(C(F)(F)F)cccc2c(C(=O)O)c1O (stereo not drawn) | 
 | 0.06 L/h/kg | 44% | 5.035 µg·h/mL | 1.5 mg/mL (≈ 3180 µM) | O=C(O)c1c(O)c(C2(c3ccccc3)CC2)nc2c(C(O)(C(F)(F)F)C(F)(F)F)cccc12 | Activity (Mus musculus [6]): 60%
 | 0.42 L/h/kg | 75% | 1.735 µg·h/mL | 0.19 mg/mL (≈ 517 µM) | Cc1ccc2c(C(=O)O)c(O)c(C3(c4ccc(Cl)cc4)CC3)nc2c1C | 

Further lines, the compound ahead of its results:

SMILES | inhibition [1] | clearance [3] | bioavailability [4] | AUC (Rattus norvegicus) | solubility [5] | also measured
CC(c1ccccc1)c1nc2c3c(ccc2c(C(=O)O)c1O)CCCC3 (stereo not drawn) |  | 0.54 L/h/kg | 66% | 1.259 µg·h/mL |  | IC50 [2]: 175 µM
CC(Cc1nc2c(C(F)(F)F)cccc2c(C(=O)O)c1O)c1ccccc1 (stereo not drawn) | 46% |  |  |  | 0.68 mg/mL (≈ 1810 µM) | 
O=C(O)c1c(O)c(C2(c3ccc(C(F)(F)F)cc3)CC2)nc2c(C(F)(F)F)cccc12 | 47% | 0.024 L/h/kg | 31% | 13.8 µg·h/mL | 0.2 mg/mL (≈ 453 µM) | 
O=C(O)c1c(O)c(C2(c3ccccc3Cl)CC2)nc2c(C(F)(F)F)cccc12 | 57% | 0.144 L/h/kg | 19% | 1.336 µg·h/mL | 0.76 mg/mL (≈ 1860 µM) | 
O=C(O)c1c(O)c(C2(c3cccs3)CC2)nc2c(C(F)(F)F)cccc12 | 15% |  |  |  |  | 
O=C(O)c1c(O)c(C2(c3cccc(C(F)(F)F)c3)CC2)nc2c(C(F)(F)F)cccc12 | 46% |  |  |  | 1 mg/mL (≈ 2270 µM) | 
Cc1cc(C)c2nc(C3(c4ccc(F)cc4)CC3)c(O)c(C(=O)O)c2c1 | < 10% |  |  |  |  | inhibition at 3 µM (CYP2C9): 55%
CCc1cccc2c(C(=O)O)c(O)c(C3(c4ccc(C(F)(F)F)cc4)CC3)nc12 |  | 0.564 L/h/kg | 100% | 2.428 µg·h/mL | 0.25 mg/mL (≈ 623 µM) | 
CCc1cccc2c(C(=O)O)c(O)c(C3(c4ccc(Cl)cc4)CC3)nc12 |  | 0.144 L/h/kg | 100% | 13.986 µg·h/mL | 0.14 mg/mL (≈ 381 µM) | 
CCC(c1ccccc1)c1nc2c(C(F)(F)F)cccc2c(C(=O)O)c1O (stereo not drawn) | 55% |  |  |  | 0.6 mg/mL (≈ 1600 µM) | 
O=C(O)c1c(O)c(Cc2ccccc2)nc2c3c(ccc12)CCCC3 |  |  |  |  |  | IC50 [2]: 413 µM
O=C(O)c1c(O)c(Cc2ccc(Cl)cc2)nc2c3c(ccc12)CCCC3 [PSI-697] |  | 0.66 L/h/kg | 27% | 0.44 µg·h/mL | < 0.01 mg/mL | IC50 [2]: 150 µM; half-life [7]: > 60 min; half-life [8]: 2 min; bioavailability [9]: 40%; AUC (Cynomolgus monkey): 1.202 µg·h/mL; half-life [10]: > 60 min; AUC (Mus musculus [11]): 1.51 µg·h/mL; clearance [12]: 0.054 L/h/kg; solubility [13]: < 0.001 mg/mL; half-life [14]: 14 min; bioavailability [15]: 58%; clearance [16]: 0.696 L/h/kg; half-life [17]: 44 min; AUC (Canis familiaris): 11.666 µg·h/mL; solubility [18]: < 0.001 mg/mL; bioavailability [19]: 100%; solubility [20]: 0.09 mg/mL (≈ 245 µM); solubility [21]: 0.075 mg/mL (≈ 204 µM)
